Paper doi:10.1101/2021.02.26.433144v1 (biorxiv, 2021)
Substitutions are numbered along the chain they refer to.

Assays:
Experiment in all cases: spectrophotometric oxidation assay, non-linear regression
Settings in all cases: 0.1 M sodium phosphate pH 7, 40 °C, 0-5 mM substrate
TtPPO [1] = target: T1, TtPPO (Thermothelomyces thermophilus, UniProt G2QLD3, L326A)
T1 sequence (G2QLD3 23-424 L326A): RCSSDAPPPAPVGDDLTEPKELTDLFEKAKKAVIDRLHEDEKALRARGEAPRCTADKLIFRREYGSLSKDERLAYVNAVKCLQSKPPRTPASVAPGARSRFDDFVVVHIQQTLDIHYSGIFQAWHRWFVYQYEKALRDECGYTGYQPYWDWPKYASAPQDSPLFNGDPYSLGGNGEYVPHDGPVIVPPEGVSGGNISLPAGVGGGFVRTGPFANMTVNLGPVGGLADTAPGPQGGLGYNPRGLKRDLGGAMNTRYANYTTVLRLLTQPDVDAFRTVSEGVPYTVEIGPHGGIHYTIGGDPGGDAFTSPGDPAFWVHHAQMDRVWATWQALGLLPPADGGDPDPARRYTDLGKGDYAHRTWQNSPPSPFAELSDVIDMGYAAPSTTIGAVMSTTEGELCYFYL

TtPPO [2] = target: T2, TtPPO (Thermothelomyces thermophilus, UniProt G2QLD3, Y316V)
T2 sequence (G2QLD3 23-424 Y316V): T1 sequence (G2QLD3 23-424 L326A) with Y294V, A304L

TtPPO [3] = target: T3, TtPPO (Thermothelomyces thermophilus, UniProt G2QLD3, G312N/L326A)
T3 sequence (G2QLD3 23-424 G312N/L326A): T1 sequence (G2QLD3 23-424 L326A) with G290N

TtPPO [4] = target: T4, TtPPO (Thermothelomyces thermophilus, UniProt G2QLD3, G312N/Y316V)
T4 sequence (G2QLD3 23-424 G312N/Y316V): T1 sequence (G2QLD3 23-424 L326A) with G290N, Y294V, A304L

TtPPO [5] = target: T5, TtPPO (Thermothelomyces thermophilus, UniProt G2QLD3, G312N)
T5 sequence (G2QLD3 23-424 G312N): T1 sequence (G2QLD3 23-424 L326A) with G290N, A304L

TtPPO [6] = target: T6, TtPPO (Thermothelomyces thermophilus, UniProt G2QLD3)
T6 sequence (G2QLD3 23-424): T1 sequence (G2QLD3 23-424 L326A) with A304L

## Oc1ccc(Cl)cc1O [4-chlorocatechol]
TtPPO [1]
  Km: 400 µM
TtPPO [2]
  Km: 2200 µM
TtPPO [3]
  Km: 500 µM
TtPPO [4]
  Km: 4300 µM
TtPPO [5]
  Km: 3500 µM
TtPPO [6]
  Km: 1800 µM
